A word on the IC50: it is the concentration that inhibits the measured activity by half.

“And” between values parts separate entries of the source, which are not always exact repeats. Equal entries are not always repeated. Where two headings read alike, the source gives them in different places.

Experiment [1] concerns the target T1, Spleen Tyrosine Kinase (SYK) aa 360-635 (Homo sapiens, UniProt P43405).
T1 construct: truncated construct of Spleen Tyrosine Kinase aa 360-635; made in house
As to the kind of experiment: Determination of IC50 of Spleen Tyrosine Kinase (SYK) inhibition, 33P kinase assay. It counts as biochemical. Conditions: recombinant human SYK360-635, 20 μM ATP. Here is the method:
Determination of IC50 of Spleen Tyrosine Kinase (SYK) Inhibition
The SYK kinase assay is a standard kinase assay adapted to a 96 well plate format. This assay is performed in 96-well format for IC50 determination with 8 samples which represented 10 half log dilutions and a 40 μL reaction volume. The assay measures the incorporation of radiolabeled ^33P γATP into an N-terminally biotinylated peptide substrate, derived from naturally occurring phosphoacceptor consensus sequence (Biotin-11aa DY*E). Phosphorylated products were detected upon termination of reactions with EDTA and the addition of Streptavidin coated beads. • Assay plates: 96-well MultiScreen 0.65 um filter plates (Millipore Cat. No.: MADVNOB10) • Streptavidin coated beads: Streptavidin Sepharose TM, suspension 5.0 mL, in 50 mM EDTA/PBS diluted (1:100), (Amersham, Cat. No.: 17-5113-01) • Compounds: 10 mM in 100% dimethylsulfoxide (DMSO), final conc.: compound 0.003-100 uM in 10% DMSO • Enzyme: SYK RPA purified, truncated construct of Spleen Tyrosine Kinase aa 360-635, stock solution 1 mg/mL, MW: 31.2 KDa, final conc.:0.0005 μM. • Peptide 1: biotinylated peptide is derived from a naturally occurring phosphor-acceptor consensus sequence (Biotin-[…]), special order from QCB, stock solution 20 mM, final conc.: 5.0 μM. • ATP: Adenosine-5′-triphosphate 20 mM, (ROCHE Cat. No.:93202720), final concentration: 20 μM • Buffer: HEPES: 2-Hydroxyethyl piperazine-2-ethanesulfonic acid (Sigma, Cat. No.: H-3375) final concentration: 50 mM HEPES pH7.5 • BSA: Bovine Serum Albumin Fraction V, fatty acid free (Roche Diagnostics GmbH, Cat. No. 9100221) diluted to a final concentration of 0.1% • EDTA: EDTA stock solution 500 mM, (GIBCO, Cat. No.: 15575-038) final concentration: 0.1 mM • DTT: 1,4-Dithiothreitol (Roche Diagnostics GmbH, Cat. No.: 197777), final conc.: 1 mM • MgCl2×6H2O: MERCK, Cat. No.: 105833.1000, final concentration: 10 mM • Assay Dilution Buffer (ADB): 50 mM HEPES, 0.1 mM EGTA, 0.1 mM Na Vanadate, 0.1 mM β-glycerophosphate, 10 mM MgCl2, 1 mM DTT, 0,1% BSA, pH 7.5 • Bead wash buffer: 10 g/L PBS (Phosphate buffered saline) with 2M NaCl+1% phosphoric acid Experimental Method:
In 40 μL volume, 26 μL of ADB diluted, purified recombinant human SYK360-635 [0.5 nM] was mixed with 4 μL of 10× concentrations of the test compounds, [usually 100 μM-0.003 μM] in [10%] DMSO and the mixture was incubated for 10 min at RT.
The kinase reaction was initiated by the addition of 10 μL 4× substrate cocktail containing the DYE peptide substrate [0 or 5 μM], ATP [20 μM] and […] [2 μCi/rxn]. After incubation at 30° C. for 15 min, the reaction was terminated by the transfer of 25 μL of the reaction sample to a 96 well 0.65 um Millipore MADVNOB membrane/plate containing 200 μL 5 mM EDTA and 20% Streptavidine coated beads in PBS.
The unbound radionucleotides were washed under vacuum with 3×250 μL 2M NaCl; 2×250 μL 2M NaCl+1% phosphoric acid; 1×250 μL H2O. After the last wash membrane/plates were transferred to an adaptor plate, heat dried for 15 min at 60° C., and 50 μL scintillation cocktail was added to each well and 4 h later the amount of radioactivity was counted in a top counter.
The IC50 was calculated using a non-linear curve fit with XLfit software (ID Business Solution Ltd., Guilford, Surrey, UK). […] Representative results are in Table 1.

Experiment [2] has as its target T2, Bruton's Tyrosine Kinase (Btk) (Homo sapiens, UniProt Q06187).
T2 construct: 5-10 nM Btk enzyme (His-tagged, full-length); His tag
Description: Determination of IC50 of Bruton's Tyrosine Kinase (Btk) inhibition, 33P filtration assay. The class given is biochemical. The note with it: His-tagged full-length Btk, 100 μM ATP. The source says: Determination of IC50 of Bruton's Tyrosine Kinase (Btk) Inhibition
The assay is a capture of radioactive ^33P phosphorylated product through filtration. The interactions of Btk, biotinylated SH2 peptide substrate (Src homology), and ATP lead to phosphorylation of the peptide substrate. Biotinylated product is bound streptavidin sepharose beads. All bound, radiolabeled products are detected by scintillation counter.
Plates assayed are 96-well polypropylene (Greiner) and 96-well 1.2 μm hydrophilic PVDF filter plates (Millipore). Concentrations reported here are final assay concentrations: 10-100 μM compounds in DMSO (Burdick and Jackson), 5-10 nM Btk enzyme (His-tagged, full-length), 30 μM peptide substrate (Biotin-Aca-[…]-NH2), 100 μM ATP (Sigma), 8 mM imidazole (Sigma, pH 7.2), 8 mM glycerol-2-phosphate (Sigma), 200 μM EGTA (Roche Diagnostics), 1 mM MnCl2 (Sigma), 20 mM MgCl2 (Sigma), 0.1 mg/ml BSA (Sigma), 2 mM DTT (Sigma), 1 μCi ^33P ATP (Amersham), 20% streptavidin sepharose beads (Amersham), 50 mM EDTA (Gibco), 2 M NaCl (Gibco), 2 M NaCl w/1% phosphoric acid (Gibco), microscint-20 (Perkin Elmer).
IC50 determinations are calculated from 10 data points per compound utilizing data produced from a standard 96-well plate assay template. One control compound and seven unknown inhibitors were tested on each plate and each plate was run twice. Typically, compounds were diluted in half-log starting at 100 μM and ending at 3 nM. The control compound was staurosporine. Background was counted in the absence of peptide substrate. Total activity was determined in the presence of peptide substrate. The following protocol was used to determine BTK inhibition.
1) Sample preparation: The test compounds were diluted at half-log increments in assay buffer (imidazole, glycerol-2-phosphate, EGTA, MnCl2, MgCl2, BSA).
2) Bead preparation • a.) rinse beads by centrifuging at 500 g • b.) reconstitute the beads with PBS and EDTA to produce a 20% bead slurry
3) Pre-incubate reaction mix without substrate (assay buffer, DTT, ATP, ^33P ATP) and mix with substrate (assay buffer, DTT, ATP, ^33P ATP, peptide substrate) 30° C. for 15 min.
4) To start assay, pre-incubate 10 μL BTK in enzyme buffer (imidazole, glycerol-2-phosphate, BSA) and 10 μL of test compounds for 10 min at RT.
5) Add 30 μL reaction mixture without or with substrate to BTK and compounds.
6) Incubate 50 μL total assay mix for 30 min at 30° C.
7) Transfer 40 μL of assay to 150 μL bead slurry in filter plate to stop reaction.
8) Wash filter plate after 30 min, with following steps • a. 3 ×250 μL NaCl • b. 3×250 μL NaCl containing 1% phosphoric acid • c. 1×250 μL H2O
9) Dry plate for 1 h at 65° C. or overnight at RT
10) Add 50 μL microscint-20 and count ^33P cpm on scintillation counter.
Calculate percent activity from raw data in cpm percent activity=(sample−bkg)/(total activity−bkg)×100

T2 sequence (Q06187 whole entry): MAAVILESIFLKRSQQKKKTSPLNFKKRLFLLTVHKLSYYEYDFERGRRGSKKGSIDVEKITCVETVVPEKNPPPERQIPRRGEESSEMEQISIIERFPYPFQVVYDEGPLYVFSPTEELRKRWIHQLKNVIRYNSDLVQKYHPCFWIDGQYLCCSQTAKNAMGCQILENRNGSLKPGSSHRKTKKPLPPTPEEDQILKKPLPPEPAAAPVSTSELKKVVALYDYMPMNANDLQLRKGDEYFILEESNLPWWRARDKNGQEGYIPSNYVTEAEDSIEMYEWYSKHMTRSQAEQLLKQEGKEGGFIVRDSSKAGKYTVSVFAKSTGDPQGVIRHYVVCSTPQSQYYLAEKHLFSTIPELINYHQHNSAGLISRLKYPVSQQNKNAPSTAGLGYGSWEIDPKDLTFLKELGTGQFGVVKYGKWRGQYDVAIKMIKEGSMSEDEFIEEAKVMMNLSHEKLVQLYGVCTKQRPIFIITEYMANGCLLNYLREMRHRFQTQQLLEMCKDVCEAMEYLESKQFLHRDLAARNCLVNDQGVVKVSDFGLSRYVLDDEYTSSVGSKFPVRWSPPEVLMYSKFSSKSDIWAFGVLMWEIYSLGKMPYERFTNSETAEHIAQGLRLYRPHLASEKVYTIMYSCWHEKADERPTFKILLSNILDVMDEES

Regarding `Cc1cc(Nc2nn(C(C)C)c(=O)c3cc(N4CCCCC4)ccc23)n[nH]1` [Example F-10, 2-Isopropyl-4-(5-methyl-1H-pyrazol-3-ylamino)-7-piperidin-1-yl-2H-phthalazin-1-one], the IC50 was 0.551 µM and 4.3 µM and 3.57 µM in experiment [1] (IC50 (μM) SYK Assay); 0.608 µM in experiment [2].

On to `COc1ccc2c(Nc3cc(C)[nH]n3)nn(C(C)C)c(=O)c2c1` [Example G-1, 2-Isopropyl-4-(5-methyl-1H-pyrazol-3-ylamino)-7-methoxy-2H-phthalazin-1-one], for which the IC50 in experiment [1] (read-out: IC50 (μM) SYK Assay) is 0.793 µM; in experiment [2], 0.724 µM.

Turning to `Cc1cc(Nc2nn(C(C)C)c(=O)c3cc(O)ccc23)n[nH]1` [Example G-6, 7-Hydroxy-2-isopropyl-4-(5-methyl-1H-pyrazol-3-yl-amino)-2H-phthalazin-1-one], the figures for the IC50 in experiment [1] (read-out: IC50 (μM) SYK Assay) and in experiment [2] were 2.52 µM and 1.28 µM, respectively.

As to `CSc1ccc2c(Nc3cc(C)[nH]n3)nn(C(C)C)c(=O)c2c1` [Example H-1, 2-Isopropyl-4-(5-methyl-1H-pyrazol-3-ylamino)-7-methylsulfanyl-2H-phthalazin-1-one], the IC50 in experiment [1] (read-out: IC50 (μM) SYK Assay) is 1.57 µM; in experiment [2] it was 4.32 µM.

`Cc1cc(Nc2nn(C(C)C)c(=O)c3cc(S(C)(=O)=O)ccc23)n[nH]1` [Example H-2, 2-Isopropyl-7-methanesulfonyl-4-(5-methyl-1H-pyrazol-3-ylamino)-2H-phthalazin-1-one]: the figures for the half-maximal inhibitory concentration (IC50) in experiment [1] (read-out: IC50 (μM) SYK Assay) and in experiment [2] were 4.29 µM and 1.11 µM, respectively.

As for `Cc1cc(Nc2nn(C(C)C)c(=O)c3cc(N(C)Cc4ccncc4)ccc23)n[nH]1` [Example I-2, 2-Isopropyl-4-(5-methyl-1H-pyrazol-3-ylamino)-7-(methyl-pyridin-4-ylmethyl-amino)-2H-phthalazin-1-one], the concentration for half-maximal inhibition (IC50) worked out at 0.392 µM in experiment [1] (read-out: IC50 (μM) SYK Assay) and 0.231 µM in experiment [2].

With `CC(=O)Nc1ccc2c(Nc3cc(C)[nH]n3)nn(C(C)C)c(=O)c2c1` [Example I-8, N-[3-Isopropyl-1-(5-methyl-1H-pyrazol-3-ylamino)-4-oxo-3,4-dihydro-phthalazin-6-yl]-acetamide], the values for the concentration for half-maximal inhibition (IC50) in experiment [1] (read-out: IC50 (μM) SYK Assay) and in experiment [2] were 5.62 µM and 2.23 µM, respectively.

Turning to `Cc1cc(Nc2nn(C(C)C)c(=O)c3cc(C(=O)NC(C)C)ccc23)n[nH]1` [Example M-5, 3-Isopropyl-1-(5-methyl-1H-pyrazol-3-ylamino)-4-oxo-3,4-dihydro-phthalazine-6-carboxylic acid isopropylamide], the 50% inhibitory concentration (IC50) was 2.16 µM in experiment [1] (read-out: IC50 (μM) SYK Assay) and 0.769 µM in experiment [2].

Turning to `Cc1cc(Nc2nn(C(C)C)c(=O)c3cc(C(=O)OCC4CC4)ccc23)n[nH]1` [Example M-6, 3-Isopropyl-1-(5-methyl-1H-pyrazol-3-ylamino)-4-oxo-3,4-dihydro-phthalazine-6-carboxylic acid cyclopropylmethyl ester], the figures for the 50% inhibitory concentration (IC50) in experiment [1] (read-out: IC50 (μM) SYK Assay) and in experiment [2] were 9.99 µM and 67.7 µM, respectively.

In the case of `Cc1cc(Nc2nn(C(C)C)c(=O)c3cc(CO)ccc23)[nH]n1` [Example M-9, 7-Hydroxymethyl-2-isopropyl-4-(5-methyl-1H-pyrazol-3-ylamino)-2H-phthalazin-1-one], the results for the IC50 in experiment [1] (read-out: IC50 (μM) SYK Assay) and in experiment [2] were 0.666 µM and 0.782 µM, respectively.

Consider `Cc1cc(Nc2nn(C(C)C)c(=O)c3cc(OCCCS(=O)(=O)N(C)C)ccc23)n[nH]1` [Example ZD-3, 3-[3-Isopropyl-1-(5-methyl-1H-pyrazol-3-ylamino)-4-oxo-3,4-dihydro-phthalazin-6-yloxy]-propane-1-sulfonic acid dimethylamide], for which the IC50 in experiment [1] (read-out: IC50 (μM) SYK Assay) came out at 3.02 µM; in experiment [2], 0.86 µM.

Regarding `Cc1cc(Nc2nn(C(C)C)c(=O)c3cc(CS(C)(=O)=O)ccc23)n[nH]1` [Example ZI-2, 2-Isopropyl-7-methanesulfonylmethyl-4-(5-methyl-1H-pyrazol-3-yl-amino)-2H-phthalazin-1-one], the concentration for half-maximal inhibition (IC50) was 0.894 µM in experiment [1] (read-out: IC50 (μM) SYK Assay) and 0.44 µM in experiment [2].

The values above are taken from patent US7501410B2, “Methods of inhibiting BTK and SYK protein kinases” (Roche Palo Alto LLC, priority 2006, dated 2009).
